Values after ≈ are worked out from the molar mass of the structure shown. Non-standard residues stand in square brackets, D forms with d. Residues, ends and D or L forms follow the SMILES beside them. No end group written: not given here. Nle = CCCC[C@H](N)C(=O)O
Key:
[1] = test system: Pseudomonas aeruginosa (ATCC 27853); type: cell-based; details: for MBC value (μg/ml) against Pseudomonas aeruginosa: ATCC 27853, 1 h; for MBC Pseudomonas aeruginosa: Tables 11-15, no unit printed
Text: (§1) Romo1 protein comprises two α-helices. The present inventors synthesized the α-helix 2 region having both hydrophilicity and hydrophobicity, and evaluated the antibacterial activity thereof using minimum bactericidal concentration (MBC) assay. The α-helix 2 region was named KU-5279 (the 52-79 amino acid region of Romo1 protein). Then, in order to identify peptides that are beneficial for human application and have excellent antibacterial activity, the present inventors synthesized several peptides comprising a sequence of contiguous amino acids starting at any amino acid selected from the 52-79 amino acid region of Romo1 protein, and comparatively evaluated the antibacterial activities of the peptides by minimum bactericidal concentration assay (See Table 1 below for information on each peptide). Evaluation of the antibacterial activity of each peptide by minimum bactericidal concentration assay was specifically performed as follows. First, each of Pseudomonas aeruginosa (ATCC 27853) and Staphylococcus aureus (ATCC 29213) was cultured in 3% (w/v) TSB (Tryptic Soy Broth) liquid medium at 37° C. and 200 rpm for 4 hours, and then further cultured under the same conditions for 3 hours to a concentration of 5×10^6 CFU/ml. Strain solutions were prepared by diluting each of the further cultured strains with SP (sodium phosphate; 10 mM sodium phosphate, 1% TSB) buffer to a final concentration of 2×10^5 CFU/ml. Then, each peptide at varying concentrations (0 μg/ml to 300 μg/ml) was dispensed into each well of a 96-well microplate, and 100 μl (1×10^5 CFU/ml) of each of the prepared strain solutions was added thereto, mixed therewith, and allowed to react with the peptide in an incubator at 37° C. for 1 hour. In addition, 30 g/L of TS (tryptic soy) and 15 g/L of agar were dissolved in distilled water and sterilized, and then 25 ml of the solution was poured onto a 100 mm round plate and solidified at room temperature for one day or more, thereby preparing a TS agar plate. 10 μl of each reaction solution of the peptide and the strain was plated on the TS agar plate at a constant size, and incubated in an incubator at 37° C. for 18 hours, and then colony formation on the plate was checked. The minimum bactericidal concentration was defined as the minimum concentration of the peptide at which no colony was formed, and the experimental results are shown in Table 1 below.

[2] = test system: Staphylococcus aureus (ATCC 29213); type: cell-based; details: for MBC value (μg/ml) against Staphylococcus aureus: ATCC 29213, 1 h; for MBC Staphylococcus aureus: Tables 11-15, no unit printed
Text: as §1

[3] = test system: methicillin-resistant Staphylococcus aureus (ATCC 33591); details: Tables 11-15, no unit printed
Protocol: First, each of Pseudomonas aeruginosa (ATCC 27853) and Staphylococcus aureus (ATCC 29213) was cultured in 3% (w/v) TSB (Tryptic Soy Broth) liquid medium at 37° C. and 200 rpm for 4 hours, and then further cultured under the same conditions for 3 hours to a concentration of 5×10^6 CFU/ml. Strain solutions were prepared by diluting each of the further cultured strains with SP (sodium phosphate; 10 mM sodium phosphate, 1% TSB) buffer to a final concentration of 2×10^5 CFU/ml.
(§2) Then, each peptide at varying concentrations (0 μg/ml to 300 μg/ml) was dispensed into each well of a 96-well microplate, and 100 μl (1×10^5 CFU/ml) of each of the prepared strain solutions was added thereto, mixed therewith, and allowed to react with the peptide in an incubator at 37° C. for 1 hour.
In addition, 30 g/L of TS (tryptic soy) and 15 g/L of agar were dissolved in distilled water and sterilized, and then 25 ml of the solution was poured onto a 100 mm round plate and solidified at room temperature for one day or more, thereby preparing a TS agar plate. 10 μl of each reaction solution of the peptide and the strain was plated on the TS agar plate at a constant size, and incubated in an incubator at 37° C. for 18 hours, and then colony formation on the plate was checked.
Specifically, each type of bacteria was cultured in 3% (w/v) TSB (Tryptic Soy Broth) liquid medium at 37° C. and 200 rpm for 4 hours, and then further cultured under the same conditions for 3 hours to a concentration of 5×10^6 CFU/ml. Strain solutions were prepared by diluting each of the […] of 2×10^5 CFU/ml.
as §2, with “Then, the KU-5878” for “Then, each”
In addition, 10 μl of each reaction solution of the peptide and the strain was plated on the TS agar plate at a constant size, and incubated in an incubator at 37° C. for 18 hours, and then colony formation on the plate was checked.

[4] = test system: CRPA; experiment: MBC, evaluation of antibacterial activities of KU-5878 variants; type: cell-based; details: Tables 11-15, no unit printed
Protocol: Variants were prepared by deleting one amino acid from the amino acid sequence of KU-5878 (SEQ ID NO: 13), and the antibacterial activities thereof were evaluated.
Variants were prepared by deleting two or more amino acids from the amino acid sequence of KU-5878 (SEQ ID NO: 13), and the antibacterial activities thereof were evaluated.
One amino acid in the amino acid sequence of KU-5878 (SEQ ID NO: 13) was substituted, and the antibacterial activities of the peptides were evaluated.
Substitutions of Q62K, S63K and T66K were sequentially added to the amino acid sequence of KU-5878-T59K, and the antibacterial activities of the peptides were evaluated.
An amino acid repeat sequence was added to the C-terminus of KU-5878, and the antibacterial activities of the peptides were evaluated. According to Table 15 below, when the R (arginine) repeat sequence or K (lysine) sequence was added to the C-terminus of KU-5878, the antibacterial activity of the peptide increased.

Molecule | MBC value (μg/ml) against Pseudomonas aeruginosa [1] [µg/mL] | MBC Pseudomonas aeruginosa [1] [µg/mL] | MBC value (μg/ml) against Staphylococcus aureus [2] [µg/mL] | MBC Staphylococcus aureus [2] [µg/mL] | MBC MRSA [3] [µg/mL] | MBC CRPA [4] [µg/mL]
CCCC[C@H](NC(=O)CNC(=O)[C@@H](NC(=O)[C@H](C)NC(=O)[C@H](CCCC)NC(=O)[C@H](Cc1ccccc1)NC(=O)[C@@H](NC(=O)CNC(=O)[C@H](Cc1ccccc1)NC(=O)[C@@H](NC(=O)CNC(=O)CNC(=O)[C@H](CO)NC(=O)[C@H](CCC(N)=O)NC(=O)[C@H](CCCC)NC(=O)[C@H](CCCC)NC(=O)[C@@H](NC(=O)[C@@H](N)CCCCN)[C@@H](C)O)[C@@H](C)O)[C@@H](C)O)[C@@H](C)CC)C(=O)NCC(=O)N[C@H](C(=O)N[C@@H](CCCNC(=N)N)C(=O)O)[C@@H](C)CC [KU-5878-4Nle] (H-KT[Nle][Nle]QSGGTFGTF[Nle]AIG[Nle]GIR-OH; N-terminus and C-terminus assumed) | 110 (≈ 51.1 µM) | 110 (≈ 51.1 µM) | 90 (≈ 41.8 µM) | 90 (≈ 41.8 µM) | 100 (≈ 46.5 µM) | 100 (≈ 46.5 µM)
KTMMQSGGTFG-FMAIGMGIR [Peptide 5878-d69T] |  | 120 |  | 120 | 140 | 140
KTMMQHGGTFGTFMAIGMGIR [KU-5878-S63H] |  | 100 |  | 100 | 110 | 100
KTMMQSGGTFGTFMAIGMGAR [KU-5878-I77A] | >300 | > 300 | >300 | > 300 | > 300 | > 300
KTMMQRGGTFGTFMAIGMGIR [KU-5878-S63R] |  | 20 |  | 15 | 25 | 20
KTMMQSGGTFGTFMAIGMGGR [KU-5878-I77G] | 80 | 80 | 90 | 90 | 90 | 100
KTMMQSGGTF-TFMAIGMGIR [Peptide 5878-d68G] |  | 25 |  | 20 | 25 | 18
KSMMQSGGTFGTFMAIGMGIR [KU-5878-T59S] |  | > 300 |  | > 300 | > 300 | > 300
KTMMQSGGRFGTFMAIGMGIR [KU-5878-T66R] |  | 80 |  | 90 | 90 | 80
KTMMQ-GGTFGTFMAIGMGIR [Peptide 5878-d63S] |  | 200 |  | 200 | 200 | 200
KTMMQSGGTFGTFMA-GMGIR [Peptide 5878-d73I] |  | > 300 |  | > 300 | > 300 | > 300
KAMMQSGGTFGTFMAIGMGIR [KU-5878-T59A] |  | 150 |  | 120 | 140 | 130
KTMMQSGGTFGTFMAIGM-IR [Peptide 5878-d76G] |  | 80 |  | 70 | 90 | 90
KTMMQSGGTFGTFMAIGMGIRQ [Peptide 5878-Q] |  | 150 |  | 180 | 180 | 180
KTMMQSGGTFGTFMAIGMG-R [Peptide 5878-d77I] |  | > 300 |  | > 300 | > 300 | > 300
KTMMQSGGTFGTFMAAGMGIR [KU-5878-I73A] | >300 | > 300 | >300 | > 300 | > 300 | > 300
KTMMQSGGTAGTFMAIGMGIR [KU-5878-F67A] | >300 | > 300 | >300 | > 300 | > 300 | > 300
K-MMQSGGTFGTFMAIGMGIR [Peptide 5878-d59T] |  | 150 |  | 150 | 150 | 150
KTMMQSGGTWGTFMAIGMGIR [KU-5878-F67W] | 80 | 80 | 80 | 80 | 90 | 80
KTMMQSGGTFGTFMAIGMGTR [KU-5878-I77T] | >300 | > 300 | >300 | > 300 | > 300 | > 300
KTAMQSGGTFGTFMAIGMGIR [KU-5878-M60A] | >300 | > 300 | >300 | > 300 | > 300 | > 300
KTMMQSGGTFGTFMAIGMGKR [KU-5878-I77K] | >300 | > 300 | >300 | > 300 | > 300 | > 300
KT-MQS-GTFGTFM-IG-GIR [5878-d60M, d64G, d72A, d75M] |  | 120 |  | 100 | 120 | 120
KTMMQAGGTFGTFMAIGMGIR [KU-5878-S63A] |  | 300 |  | 300 | > 300 | 300
KTMMQSGG-FGTFMAIGMGIR [Peptide 5878-d66T] |  | 90 |  | 90 | 90 | 100
KTMMQSGGTFGTFMAIGMGIRRRR [Peptide 5878-3R] |  | 8 |  | 8 | 10 | 8
KTMMQSGGSFGTFMAIGMGIR [KU-5878-T66S] |  | > 300 |  | > 300 | > 300 | > 300

— patent publication US12053506B2, “Romo1-derived antimicrobial peptides and variants thereof” (priority 2019, dated 2024)
